25 molecules from ChEMBL document CHEMBL3994611, “Synthesis and biological evaluation of deferiprone-resveratrol hybrids as antioxidants, Aβ1-42 aggregation inhibitors and metal-chelating agents for Alzheimer's disease” (Eur J Med Chem, 2017) can be followed below.

Active and inactive are the calls of the source. The rule behind the calls is not given here.

Assay [1] can be described thus: Binding affinity to CP645 probe-labeled Fe3+ in DMSO/MOPS buffer assessed as concentration of free Fe3+ in solution at 60 uM after 48 hrs by spectrofluorophotometric method.
Assay [2] is described as follows: Antioxidant activity assessed as ABTS radical scavenging activity incubated for 10 mins under dark condition. It counts as functional.
Assay [3] concerns the target T1, Amyloid-beta precursor protein (Homo sapiens, UniProt P05067). Description: Inhibition of HFIP-pretreated amyloid beta (1 to 42) (unknown origin) self-induced aggregation at 20 uM incubated for 24 hrs under dark condition by thioflavin-T based fluorometric assay relative to control.
Assay [4] has as its target T1, Amyloid-beta precursor protein. Description: Inhibition of HFIP-pretreated amyloid beta (1 to 42) (unknown origin) self-induced aggregation incubated for 24 hrs under dark condition by thioflavin-T based fluorometric assay.
The nature of assay [5]: Binding affinity to Fe3+ assessed as inhibition of Fe3+-induced amyloid beta (1 to 42) aggregation at 50 uM incubated for 24 hrs under dark condition by uranyl acetate staining based transmission electron microscopic method.
A short description of assay [6]: Binding affinity to Cu2+ assessed as disaggregation of Cu2+-induced amyloid beta (1 to 42) aggregation by measuring Cu2+-amyloid beta (1 to 42) complex fluorescence at 75 uM treated 24 hrs after Cu2+ addition measured after 24 hrs incubation under dark condition by thioflavin-T based fluorometric assay relative to control.
The nature of assay [7]: Binding affinity to Fe3+ in DMSO/MOPS buffer assessed as maximal absorbance intensity at iron to ligand ratio of 1:4 by UV-visible spectrophotometric method.
Assay [8] can be described thus: Binding affinity to Cu2+ assessed as disaggregation of Cu2+-induced amyloid beta (1 to 42) aggregation at 75 uM incubated for 24 hrs under dark condition by uranyl acetate staining based transmission electron microscopic method.
Assay [9] can be described thus: Binding affinity to Cu2+ assessed as inhibition of Cu2+-induced amyloid beta (1 to 42) aggregation by measuring Cu2+-amyloid beta (1 to 42) complex fluorescence at 75 uM incubated for 24 hrs under dark condition by thioflavin-T based fluorometric assay relative to control. Set-up: scale not given: the % may be the effect or the level left.
A short description of assay [10]: Binding affinity to Fe3+ assessed as disaggregation of Fe3+-induced amyloid beta (1 to 42) aggregation at 50 uM incubated for 24 hrs under dark condition by uranyl acetate staining based transmission electron microscopic method.
The nature of assay [11]: Binding affinity to Fe3+ assessed as inhibition of Fe3+-induced amyloid beta (1 to 42) aggregation by measuring Fe3+-amyloid beta (1 to 42) complex fluorescence at 50 uM incubated for 24 hrs under dark condition by thioflavin-T based fluorometric assay relative to control. Set-up: scale not given: the % may be the effect or the level left.
Assay [12] in a line: Binding affinity to Fe3+ assessed as disaggregation of Fe3+-induced amyloid beta (1 to 42) aggregation by measuring Fe3+-amyloid beta (1 to 42) complex fluorescence at 50 uM treated 24 hrs after Fe3+ addition measured after 24 hrs incubation under dark condition by thioflavin-T based fluorometric assay relative to control.
The nature of assay [13]: Binding affinity to Cu2+ assessed as inhibition of Cu2+-induced amyloid beta (1 to 42) aggregation at 75 uM incubated for 24 hrs under dark condition by uranyl acetate staining based transmission electron microscopic method.
Assay [14] in a line: Binding affinity to Fe3+ assessed as cumulative stability constant.
Assay [15] can be described thus: Binding affinity to Cu2+ assessed as cumulative stability constant.
Assay [16] is described as follows: Binding affinity to Zn2+ assessed as cumulative stability constant.

T1 sequence (P05067 whole entry): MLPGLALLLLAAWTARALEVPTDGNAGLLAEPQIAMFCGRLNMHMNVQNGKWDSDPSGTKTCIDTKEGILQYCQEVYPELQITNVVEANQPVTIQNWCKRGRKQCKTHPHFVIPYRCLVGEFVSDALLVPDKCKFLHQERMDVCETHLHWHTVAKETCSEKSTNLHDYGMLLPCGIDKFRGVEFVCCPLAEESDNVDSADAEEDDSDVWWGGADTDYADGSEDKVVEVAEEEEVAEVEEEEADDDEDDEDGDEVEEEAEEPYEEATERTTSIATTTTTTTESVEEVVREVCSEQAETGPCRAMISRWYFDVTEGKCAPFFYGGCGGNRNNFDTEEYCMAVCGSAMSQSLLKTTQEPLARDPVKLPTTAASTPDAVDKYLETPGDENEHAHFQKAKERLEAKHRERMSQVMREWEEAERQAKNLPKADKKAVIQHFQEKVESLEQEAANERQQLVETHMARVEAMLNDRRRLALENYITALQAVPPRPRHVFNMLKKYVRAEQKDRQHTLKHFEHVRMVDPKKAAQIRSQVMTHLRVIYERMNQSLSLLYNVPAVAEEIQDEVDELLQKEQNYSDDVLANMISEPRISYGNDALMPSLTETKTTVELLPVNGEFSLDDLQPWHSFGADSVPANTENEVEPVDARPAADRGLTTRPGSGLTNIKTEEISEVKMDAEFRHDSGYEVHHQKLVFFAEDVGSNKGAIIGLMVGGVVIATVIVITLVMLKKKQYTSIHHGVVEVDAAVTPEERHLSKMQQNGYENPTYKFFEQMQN

The IC50 is the midpoint of a concentration-inhibition curve. One may read the inhibition as the percentage by which the read-out fell short of the control. For `Cn1cc(O)c(=O)cc1/C=C/c1ccccc1`, in [1], the log free Fe3+ concentration was -19.8. For the same molecule, the IC50 in [2] was found to be 2.11 µM. Besides, in assay [3], the inhibition worked out at 21.6%.

With `CN(C)c1ccc(/C=C/c2cc(=O)c(O)c[nH]2)cc1`, the log free Fe3+ concentration in [1] was -20.1. Moreover, the IC50 is 3.41 µM in assay [2] and 29.2 µM in assay [4]. Also, in [3], the inhibition was determined as 49.6%.

Consider `O=c1cc(/C=C/c2ccccc2)[nH]cc1O`, for which the log free Fe3+ concentration in assay [1] is -21. The IC50 in [2] worked out at 4.03 µM. Further, the inhibition in assay [3] was found to be 38.2%.

As to `Cc1c(C)c2c(c(C)c1O)CCC(C)(C(=O)O)O2` (stereo not drawn) [TROLOX], in assay [2], the IC50 was 3.89 µM.

On to `O=c1cc(/C=C/c2ccc(Cl)cc2)[nH]cc1O`, for which the log free Fe3+ concentration in [1] is -19.5. For the same molecule, in assay [2], the IC50 was 11.5 µM. The inhibition in assay [3] worked out at 11.6%.

`O=c1cc(/C=C/c2ccc(O)cc2)[nH]cc1O`: the result in [5], in [7], in [8], in [10] and in assay [13] was Active. Further, the log free Fe3+ concentration in assay [1] is -19.6. Moreover, the Activity in assay [6] was determined as 69%; in [9], 65%; in assay [11] it was 62%; in assay [12] it was 25%. Moreover, the IC50 in assay [2] is 1.73 µM; in assay [4], 10.7 µM. The inhibition in assay [3] was determined as 58.4%.

`Oc1ccc(/C=C/c2cc(O)cc(O)c2)cc1` [RESVERATROL]: the Activity came to 35% in [6], 86% in [9], 87% in assay [11] and 58% in assay [12]. Also, the result in [8] and in assay [10] was Active. Also, in [2], the IC50 was 0.76 µM.

`Cn1cc(O)c(=O)cc1/C=C/c1ccccc1O`: in [1], the log free Fe3+ concentration was -20.3. The IC50 in assay [2] was found to be 1.83 µM. Moreover, in assay [3], the inhibition turned out to be 31.1%.

Turning to `O=c1cc(/C=C/c2ccc([N+](=O)[O-])cc2)[nH]cc1O`, the log free Fe3+ concentration in assay [1] was -19.5. Further, the IC50 in assay [2] turned out to be 4.79 µM.

On to `O=c1cc(/C=C/c2cccc(F)c2)[nH]cc1O`, for which the log free Fe3+ concentration in assay [1] was -20.2. Also, the IC50 worked out at 6.29 µM in assay [2] and 19 µM in assay [4]. For the same molecule, the inhibition in assay [3] amounted to 53.2%.

Regarding `COc1ccccc1/C=C/c1cc(=O)c(O)cn1C`, the log free Fe3+ concentration in assay [1] is -20.6. The IC50 in assay [2] is 4.17 µM; in [4], 12.5 µM. In assay [3], the inhibition worked out at 56.8%.

Consider `COc1cc(/C=C/c2cc(=O)c(O)c[nH]2)cc(OC)c1`, for which, in assay [1], the log free Fe3+ concentration was -21.6. The IC50 in assay [2] is 11.4 µM. Besides, in assay [3], the inhibition is 35.3%.

`COc1ccccc1/C=C/c1cc(=O)c(O)c[nH]1`: the log free Fe3+ concentration in assay [1] is -20.2. The IC50 in assay [2] stood at 6.74 µM; in [4] it was 16.5 µM. In addition, the inhibition in assay [3] was found to be 54.9%.

As to `CCOc1ccc(/C=C/c2cc(=O)c(O)cn2C)cc1`, the outcome in [5], in [8], in [10] and in assay [13] was Active. Further, in assay [1], the log free Fe3+ concentration was -19. The Activity was 47% in [6], 57% in assay [9], 64% in assay [11] and 16% in [12]. Further, the IC50 was found to be 4.02 µM in assay [2] and 8.94 µM in assay [4]. Also, the inhibition in assay [3] is 65.3%.

`CN(C)c1ccc(/C=C/c2cc(=O)c(O)cn2C)cc1`: the log free Fe3+ concentration in assay [1] is -19.2. For the same molecule, the IC50 in assay [2] was 2.52 µM. The inhibition in assay [3] stood at 44.9%.

For the molecule `O=c1cc(/C=C/c2ccccc2O)[nH]cc1O`, the log free Fe3+ concentration in [1] was -20.2. The values for the IC50 in [2] and in assay [4] were 2.21 µM and 21.8 µM, respectively. Moreover, the inhibition in assay [3] stood at 49.3%.

For `Cc1c(O)c(=O)ccn1C`, the figures for the K in assay [14], in assay [15] and in [16] were 37.2, 21.7 and 13.5, respectively. Further, in assay [1], the log free Fe3+ concentration is -20.6.

As to `COc1cc(/C=C/c2cc(=O)c(O)cn2C)cc(OC)c1`, the log free Fe3+ concentration in assay [1] was -21.2. Also, the IC50 in [2] stood at 3.74 µM. For the same molecule, the inhibition in assay [3] was 28.3%.

`Cn1cc(O)c(=O)cc1/C=C/c1cccc(F)c1`: the log free Fe3+ concentration in assay [1] is -20.1. Moreover, the 50% inhibitory concentration (IC50) in assay [2] amounted to 1.31 µM; in assay [4], 19.4 µM. Further, the inhibition in assay [3] was found to be 52.4%.

As to `CCOc1ccc(/C=C/c2cc(=O)c(O)c[nH]2)cc1`, the log free Fe3+ concentration in [1] was -20.1. Moreover, the IC50 in assay [2] stood at 8.12 µM; in assay [4], 23.4 µM. The inhibition in assay [3] came out at 51.5%.

On to `Cn1cc(O)c(=O)cc1/C=C/c1ccc([N+](=O)[O-])cc1`, for which the log free Fe3+ concentration in assay [1] was -18.4. Moreover, the IC50 in assay [2] was determined as 19.2 µM.

`O=c1cc(/C=C/c2cc(O)cc(O)c2)[nH]cc1O`: in [1], the log free Fe3+ concentration was -19.2. The half-maximal inhibitory concentration (IC50) in [2] came out at 0.88 µM. For the same molecule, the inhibition in [3] is 18.2%.

As for `Cn1cc(O)c(=O)cc1/C=C/c1ccc(Cl)cc1`, the log free Fe3+ concentration in assay [1] is -20.8. In addition, the IC50 in assay [2] came to 5.72 µM. Moreover, the inhibition in [3] turned out to be 14.5%.

`Cn1cc(O)c(=O)cc1/C=C/c1cc(O)cc(O)c1`: the log free Fe3+ concentration in [1] was -20.1. Moreover, the IC50 in assay [2] amounted to 1.19 µM. In assay [3], the inhibition worked out at 22.4%.

In the case of `Cn1cc(O)c(=O)cc1/C=C/c1ccc(O)cc1`, the log free Fe3+ concentration in [1] was -20.1. The half-inhibitory concentration (IC50) in assay [2] came out at 1.37 µM; in [4], 15.4 µM. In addition, the inhibition in assay [3] was determined as 52.5%.
